Results reported in patent US9101569B2, “Methods for the treatment of insulin resistance” (UNIVERSITE DE GENEVE, priority 2010, dated 2015).

Legend:
[1] = tested on: PPAR-alpha knockout (KO) mice; assay: Peripheral OT infusion in PPAR-alpha knockout mice; type: in vivo; conditions: peripheral 50 nmol/day over 3 days
Protocol: The beneficial metabolic effects of OT administration were assayed in the same high-fat diet induced obesity model in rats as in Example 1 and in PPAR-alpha knockout mice (Lee et al., 1995, Mol. Cell. Biol., 15(6):3012-22). HFD-induced obese animals, saline or OT groups (see conditions under Example 1) were subcutaneously infused via minipumps (Alzet®, as above). OT was delivered at a dose of 50 nmol/day/rat during 14 days.
OT was peripherally administered with 50 nmol/day over 3 days in PPAR-alpha knockout (KO) mice and their wild-type littermates. […] Consistently, OT peripheral infusion promoted an increase in the mRNA expression of PPAR-alpha target genes (Acadm, Acox1, Ehhadh, Ucp3) in wild-type mice, while it had no effect in PPAR-alpha knockouts.

[2] = tested on: HFD-induced obese rats; assay: Euglycemic-hyperinsulinemic clamps after i.c.v. OT infusion; type: in vivo, rat; conditions: 14-day i.c.v. 1.6 nmol/d
Protocol: (§1) Global and tissue-specific glucose utilization rates were measured by performing euglycemic-hyperinsulinemic clamps associated with the labeled 2-deoxyglucose technique as previously described (Vettor et al., 1994, Diabetologia, 37, 1202-1208). HFD-induced obese rats were overnight fasted and intraperitoneally anesthetized with Nembutal (75 mg/kg sodium pentobarbital; Abbott Laboratories, Chicago, Ill.). Total glucose utilization was measured during euglycemic-hyperinsulinemic clamps, as previously described (Vettor et al., 1994, above). At the end of the clamp, the in vivo insulin-stimulated glucose utilization index of individual tissues was determined by injecting a single bolus of labeled 2-deoxy-D-[1-3H]glucose (30 μCi; Amersham Biosciences UK, Little Chalfont, UK), as previously described (Vettor et al., 1994, above). Rats were killed by rapid decapitation, and tissues were rapidly removed, freeze-clamped, and stored at −80° C. Measurement of tissue concentration of 2-deoxy-d-[1-^3H]glucose-6-phosphate allowed calculation (Vettor et al., 1994, above) of the in vivo glucose utilization index of individual tissues and was expressed in ng/mg·min.

[3] = tested on: enzymes involved in lipid metabolism; assay: Tissue expression of lipid metabolism enzymes (real-time RT-PCR) after i.c.v. OT infusion; type: in vivo, rat; conditions: central OT infusion
[4] = tested on: HFD-induced obese rats; assay: HOMA-IR and euglycemic-hyperinsulinemic clamps after subcutaneous OT infusion; type: in vivo, rat; conditions: s.c. 50 nmol/day, 14 days
Protocol: as §1, with “Rats were killed by rapid decapitation, and tissues were rapidly removed, freeze-clamped, and stored at −80° C. Measurement of tissue concentration of 2-deoxy-d-[1-^3H]glucose-6-phosphate allowed calculation (Vettor et al., 1994, above) of the in vivo glucose utilization index of individual tissues and was expressed in ng/mg·min.” left out
The beneficial effects of OT administration were assessed in the same rat model of high-fat diet induced obesity as in Example 1. […]
Insulinemia and glycemia were measured after an overnight fast before the euglycemic hyperinsulinemic clamps) and were used to calculate the “homeostasis model assessment of insulin resistance” (HOMA-IR). HOMA-IR was calculated as follows: (fasting serum insulin in mU/l)×(fasting blood glucose in mM)/22.5.
The effect of peripheral OT administration on high fat diet-induced insulin resistance was determined as described in Example 1.

[5] = tested on: enzymes involved in lipid metabolism; assay: Tissue expression of lipid metabolism enzymes (real-time RT-PCR) after i.c.v. OT infusion; type: in vivo, rat
Protocol: To delineate the mechanisms responsible for the effect on peripheral metabolism, the expression of enzymes involved in lipid metabolism was analyzed in adipose tissues (epididymal white and interscapular brown adipose tissues). Total RNAs were extracted from frozen tissue using a single-step extraction with Trizol reagent (Sigma-Aldrich, Buchs, Switzerland). RNA integrity was assessed by electrophoresis on a 1% agarose gel and concentration was determined by spectrophotometry. An amount of 2.5 μg of total RNAs was used for RT using random hexamers (Microsynth, Geneva, Switzerland), dNTPs (Promega Corporation, Madison, Wis., USA), RNasin as an RNase inhibitor (Promega Corporation) and the Moloney Murine Leukemia Virus Reverse Transcriptase (M-MLV-RT) enzyme kit (Invitrogen, Basel, Switzerland). For quantitative PCR (qPCR), amplification of genes was performed from 6.25 or 12.5 ng cDNA, using the SYBR® green PCR Master Mix (Applied Biosystems, Warrington, UK) and an ABI7500 machine (Applied Biosystems, Foster City, Calif.). All the primers were designed (FIG. 9, Table 1) with the PrimerExpress software (http://phym.unige.ch/) and used at a concentration of 200 to 300 nM for qPCR. Results were normalized to the expression levels of the housekeeping gene, ribosomal protein S29 (RPS29).

[6] = interscapular brown adipose tissue (BAT), i.c.v. OT

CC[C@H](C)[C@@H]1NC(=O)[C@H](Cc2ccc(O)cc2)NC(=O)[C@@H](N)CSSC[C@@H](C(=O)N2CCC[C@H]2C(=O)N[C@@H](CC(C)C)C(=O)NCC(N)=O)NC(=O)[C@H](CC(N)=O)NC(=O)[C@H](CCC(N)=O)NC1=O [OT, Cys-Tyr-Ile-Gln-Asn-Cys-Pro-Leu-Gly (SEQ ID NO: 1)]
body weight gain [1]: did not modify | mRNA expression of PPAR-alpha target genes (Acadm, Acox1, Ehhadh, Ucp3) [1]: no effect | glucose uptake in epididymal WAT [2]: significant increase | glucose uptake in inguinal WAT [2]: significant increase | glucose infusion rate (GIR) ([2]; compared to saline): significant increases | glucose utilization index, red gastrocnemius ([2]; compared to saline): significant increases | glucose utilization index, red quadriceps ([2]; compared to saline): significant increases | glucose utilization index, soleus ([2]; compared to saline): significant increases | HSL at the protein level [3]: stimulatory effect | expression of genes involved in fatty acid β-oxidation ([3]; liver): did not modify | glucose infusion rate (GIR) [4]: significantly increased | HOMA-IR ([4]; compared to saline, not observed in pair-fed group): lower | mRNA expression of PPAR-alpha and its target genes ([5]; BAT, OT infusion (16 nmol/d experiment)): significantly increased | Acaca mRNA expression ([5]; eWAT, i.c.v. 1.6 nmol/d): did not modify | Acadm mRNA expression ([5]; eWAT, i.c.v. 1.6 nmol/d): increased | Acox1 mRNA expression ([5]; eWAT, i.c.v. 1.6 nmol/d): increased | Dgat1 mRNA expression ([5]; eWAT, i.c.v. 1.6 nmol/d): did not modify | Ehhadh mRNA expression ([5]; eWAT, i.c.v. 1.6 nmol/d): increased | Fasn mRNA expression ([5]; eWAT, i.c.v. 1.6 nmol/d): did not modify | HSL mRNA expression ([5]; eWAT, i.c.v. 1.6 nmol/d): increased | Lpl mRNA expression ([5]; eWAT, i.c.v. 1.6 nmol/d): increase | Pnpla2 mRNA expression ([5]; eWAT, i.c.v. 1.6 nmol/d): increased | Scd1 mRNA expression ([5]; eWAT, i.c.v. 1.6 nmol/d): marked increase | Ucp3 mRNA expression ([5]; eWAT, i.c.v. 1.6 nmol/d): enhanced | PPAR-alpha mRNA ([5]; eWAT, i.c.v. 16 nmol/d): did not modify | expression of PPAR-alpha target genes (Acadm, Acox1, Ehhadh, Ucp3) ([5]; eWAT, i.c.v. 16 nmol/d, food intake-independent): increases | stimulatory effect on Scd1 mRNA expression ([5]; i.c.v. 1.6 nmol/d (lower dose)): 4.2 folds | stimulatory effect on Scd1 mRNA expression ([5]; i.c.v. 16 nmol/d): 5.6 folds | PPAR-alpha expression [5, 6]: significantly increased | expression of the main enzymes involved in fatty acid β-oxidation [5, 6]: significantly increased | expression of genes involved in fatty acid β-oxidation ([5]; skeletal muscle, central OT infusion): did not modify
